Results reported in US8598086B2, “3-halo-(arly)-4-iminotetrahydropicolinates and their use as herbicides” (Dow AgroSciences, LLC., priority 2009, dated 2013).

Tests used:
Format in all cases: in vivo
[1] = system: giant foxtail (Setaria faberi); assay: Post-emergent Test I; settings: 10 d after treatment, scale 0 (no activity) to 100 (complete plant death)
Experimental: (§1) Post-emergent Test I: Weed seeds were obtained from commercial suppliers and planted into 5″-round pots containing soilless media mix (Metro-Mix 360®, Sun Gro Horticulture Canada CM Ltd. Vancouver, British Columbia) 8-12 d prior to application and cultured in a greenhouse equipped with supplemental light sources to provide a 16 h photoperiod at 24-29° C. All pots were surface irrigated. Compounds were dissolved in a 97:3 v/v (volume per volume) mixture of acetone and dimethyl sulfoxide (DMSO) and diluted to the appropriate concentration in a final application solution containing water, acetone, isopropyl alcohol, DMSO and Agri-dex (crop oil concentrate) in a 59:23:15:1.0:1.5 v/v ratio and 0.02% w/v (weight per volume) of Triton X-155 to obtain the spray solution containing the highest application rate. The high application rate was serial diluted with the above application solution to provide delivery of the compound at rates 1/2×, 1/4× and 1/8× of the highest rate (equivalent to 4.0, 2.0, 1.0, and 0.5 kg/ha, respectively). Formulated compound (2.7 mL) was applied using a DeVilbiss® compressed air sprayer at 2-4 pounds per square inch (psi) […]. Following treatment, pots were allowed to dry before being returned to the greenhouse for the duration of the experiment and subirrigated as needed. All pots were fertilized one time per week by subirrigating with Peters Peat-Lite Special® fertilizer (20-10-20). Phytotoxicity ratings were obtained 10 d after treatment. All evaluations were made on a scale of 0 to 100 where 0 represents no activity and 100 represents complete plant death.

[2] = system: ivyleaf morningglory (Ipomoea hederacea); assay: Post-emergent Test I; settings: 10 d after treatment, scale 0 (no activity) to 100 (complete plant death)
Experimental: as §1

[3] = system: sunflower (Helianthus annuus); assay: Post-emergent Test I; settings: 10 d after treatment, scale 0 (no activity) to 100 (complete plant death)
Experimental: as §1

wild oat (Avena fatua) [4] = assay: Post-emergent Test I; settings: 10 d after treatment, scale 0 (no activity) to 100 (complete plant death)
Experimental: as §1

[5] = system: giant foxtail (Setaria faberi); assay: Pre-emergent Test I; settings: 14 d after treatment, scale 0 (no herbicidal effect) to 100 (plant death or lack of emergence)
Experimental: (§2) Pre-emergent Test I: Weed seeds were obtained from commercial suppliers and planted into round plastic pots (5-inch diameter) containing silt loam soil (23% sand, 52% silt, 29% clay, 2.9% organic matter, CEC 16.6, pH 7.2). After planting, all pots were subirrigated 16 h prior to compound application. Compounds were dissolved in a 97:3 v/v mixture of acetone and DMSO and diluted to the appropriate concentration in a final application solution containing water, acetone, isopropyl alcohol, DMSO and Agri-dex (crop oil concentrate) in a 59:23:15:1.0:1.5 v/v ratio and 0.02% w/v of Triton X-155 to obtain the spray solution containing the highest application rate. The high application rate was serial diluted with the above application solution to provide delivery of the compound at rates 1/2×, 1/4× and 1/8× of the highest rate (equivalent to 4.0, 2.0, 1.0, and 0.5 kg/ha, respectively). Formulated compound (2.7 mL) was pipetted evenly over the soil surface followed by incorporation with water (15 mL). Following treatment, pots were returned to the greenhouse for the duration of the experiment. The greenhouse was programmed for an approximate 15 h photoperiod which was maintained at about 23-29° C. during the day and 22-28° C. during the night. Nutrients and water were added on a regular basis through surface irrigation and supplemental lighting was provided with overhead metal halide 1000-Watt lamps as necessary. Herbicidal effect ratings were obtained 14 d after treatment. All evaluations were made relative to appropriate controls on a scale of 0 to 100 where 0 represents no herbicidal effect and 100 represents plant death or lack of emergence from the soil.

[6] = system: ivyleaf morningglory (Ipomoea hederacea); assay: Pre-emergent Test I; settings: 14 d after treatment, scale 0 (no herbicidal effect) to 100 (plant death or lack of emergence)
Experimental: as §2

[7] = system: pigweed (Amaranthus retroflexus); assay: Pre-emergent Test I; settings: 14 d after treatment, scale 0 (no herbicidal effect) to 100 (plant death or lack of emergence)
Experimental: as §2

[8] = system: sunflower (Helianthus annuus); assay: Pre-emergent Test I; settings: 14 d after treatment, scale 0 (no herbicidal effect) to 100 (plant death or lack of emergence)
Experimental: as §2

wild oat (Avena fatua) [9] = assay: Pre-emergent Test I; settings: 14 d after treatment, scale 0 (no herbicidal effect) to 100 (plant death or lack of emergence)
Experimental: as §2

[10] = system: barnyardgrass (Echinochloa crus-galli); assay: Post-emergent Test II; settings: after 14 d, 0 = no injury, 100 = complete kill
Experimental: (§3) Post-emergent Test II: Seeds or nutlets of the desired test plant species were planted in Sun Gro Metro-Mix® 360 planting mixture, which typically has a pH of 6.0 to 6.8 and an organic matter content of about 30 percent, in plastic pots with a surface area of 64 square centimeters. When required to ensure good germination and healthy plants, a fungicide treatment and/or other chemical or physical treatment was applied. The plants were grown for 7-21 d in a greenhouse with an approximate 15 h photoperiod which was maintained at about 23-29° C. during the day and 22-28° C. during the night. Nutrients and water were added on a regular basis and supplemental lighting was provided with overhead metal halide 1000-Watt lamps as necessary. The plants were employed for testing when they reached the first or second true leaf stage.
(§4) A weighed amount, determined by the highest rate to be tested, of each test compound was placed in a 25 mL glass vial and was dissolved in 4 mL of a 97:3 v/v mixture of acetone and DMSO to obtain concentrated stock solutions. […] The concentrated stock solutions obtained were diluted with 20 mL of an aqueous mixture containing acetone, water, isopropyl alcohol, DMSO, Atplus 411F crop oil concentrate, and Triton® X-155 surfactant in a 48.5:39:10:1.5:1.0:0.02 v/v ratio to obtain spray solutions containing the highest application rates. Additional application rates were obtained by serial dilution of 12 mL of the high rate solution into a solution containing 2 mL of 97:3 v/v mixture of acetone and DMSO and 10 mL of an aqueous mixture containing acetone, water, isopropyl alcohol, DMSO, Atplus 411F crop oil concentrate, and Triton X-155 surfactant in a 48.5:39:10:1.5:1.0:0.02 v/v ratio to obtain 1/2×, 1/4×, 1/8× and 1/16× rates of the high rate. Compound requirements are based upon a 12 mL application volume at a rate of 187 liters per hectare (L/ha). Formulated compounds were applied to the plant material with an overhead Mandel track sprayer equipped with 8002E nozzles calibrated to deliver 187 L/ha over an application area of 0.503 square meters at a spray height of 18 inches (43 cm) above the average plant canopy height. Control plants were sprayed in the same manner with the solvent blank.
(§5) The treated plants and control plants were placed in a greenhouse as described above and watered by subirrigation to prevent wash-off of the test compounds. After 14 d, the condition of the test plants as compared with that of the untreated plants was determined visually and scored on a scale of 0 to 100 percent where 0 corresponds to no injury and 100 corresponds to complete kill.

[11] = system: bindweed (Polygonum convolvulus); assay: Post-emergent Test II; settings: after 14 d, 0 = no injury, 100 = complete kill
Experimental: as §3, §4, §5

[12] = system: lambsquarters (Chenopodium album); assay: Post-emergent Test II; settings: after 14 d, 0 = no injury, 100 = complete kill
Experimental: as §3, §4, §5

rice (Oryza sativa) = assay: Post-emergent Test II; settings: after 14 d, 0 = no injury, 100 = complete kill
Experimental: as §3, §4, §5

[13] = system: velvetleaf (Abutilon theophrasti); assay: Post-emergent Test II; settings: after 14 d, 0 = no injury, 100 = complete kill
Experimental: as §3, §4, §5

[14] = system: pigweed (Amaranthus retroflexus); assay: Post-emergent Test I; settings: 10 d after treatment, scale 0 (no activity) to 100 (complete plant death)
Experimental: as §1

SMILES: CCOC(=O)C1=C(Cl)/C(=N/OS(C)(=O)=O)CC(c2ccc(Cl)cc2F)N1 (stereo not drawn) [Compound 26, 3-chloro-6-(4-chloro-2-fluorophenyl)-4-[(E)-methanesulfonyloximino]-1,4,5,6-tetrahydropyridine-2-carboxylic acid ethyl ester]
- Phytotoxicity rating SETFA ([1]; 3760 g ai/ha): 100
- Phytotoxicity rating IPOHE ([2]; 3760 g ai/ha): 100
- Phytotoxicity rating HELAN ([3]; 3760 g ai/ha): 100
- Phytotoxicity rating AVEFA (wild oat (Avena fatua) [4]; 3760 g ai/ha): 95
- Herbicidal effect rating SETFA ([5]; 3760 g ai/ha): 70
- Herbicidal effect rating IPOHE ([6]; 3760 g ai/ha): 100
- Herbicidal effect rating AMARE ([7]; 3760 g ai/ha): 100
- Herbicidal effect rating HELAN ([8]; 3760 g ai/ha): 70
- Herbicidal effect rating AVEFA (wild oat (Avena fatua) [9]; 3760 g ai/ha): 10

SMILES: COC(=O)C1=C(Cl)/C(=N/OC(C)=O)CC(c2ccc(Cl)c(OC)c2F)N1 (stereo not drawn) [Compound 35, 3-chloro-6-(4-chloro-2-fluoro-3-methoxyphenyl)-4-[(E)-acetoxyoximino]-3-chloro-1,4,5,6-tetrahydropyridine-2-carboxylic acid methyl ester]
- Visual injury score ECHCG ([10]; 70 g ai/ha): 90%
- Visual injury score POLCO ([11]; 70 g ai/ha): 100%
- Visual injury score CHEAL ([12]; 70 g ai/ha): 100%
- Visual injury score ORYSA (rice (Oryza sativa); 70 g ai/ha): 0%
- Visual injury score ABUTH ([13]; 70 g ai/ha): 100%

SMILES: COC(=O)C1=C(Br)/C(=N/OS(C)(=O)=O)CC(c2ccc(Cl)c(OC)c2F)N1 (stereo not drawn) [Compound 32, 3-bromo-6-(4-chloro-2-fluoro-3-methoxyphenyl)-4-[(E)-methanesulfonyloximino]-1,4,5,6-tetrahydropyridine-2-carboxylic acid methyl ester]
- Visual injury score ECHCG ([10]; 140 g ai/ha): 90%
- Visual injury score POLCO ([11]; 140 g ai/ha): 90%
- Visual injury score CHEAL ([12]; 140 g ai/ha): 100%
- Visual injury score ORYSA (rice (Oryza sativa); 140 g ai/ha): 15%
- Visual injury score ABUTH ([13]; 140 g ai/ha): 100%

SMILES: CCOC(=O)C1=C(Cl)/C(=N/OS(C)(=O)=O)CC(c2ccc(Cl)c(OC)c2F)N1 (stereo not drawn) [Compound 30, 3-Chloro-6-(4-chloro-2-fluoro-3-methoxyphenyl)-4-[(E)-methanesulfonyloximino]-1,4,5,6-tetrahydropyridine-2-carboxylic acid ethyl ester]
- Phytotoxicity rating SETFA ([1]; 3400 g ai/ha): 85
- Phytotoxicity rating IPOHE ([2]; 3400 g ai/ha): 95
- Phytotoxicity rating AMARE ([14]; 3400 g ai/ha): 100
- Phytotoxicity rating HELAN ([3]; 3400 g ai/ha): 90
- Phytotoxicity rating AVEFA (wild oat (Avena fatua) [4]; 3400 g ai/ha): 30
- Herbicidal effect rating SETFA ([5]; 3400 g ai/ha): 100
- Herbicidal effect rating IPOHE ([6]; 3400 g ai/ha): 100
- Herbicidal effect rating AMARE ([7]; 3400 g ai/ha): 100
- Herbicidal effect rating HELAN ([8]; 3400 g ai/ha): 100
- Herbicidal effect rating AVEFA (wild oat (Avena fatua) [9]; 3400 g ai/ha): 95

SMILES: COC(=O)C1=C(Cl)/C(=N/OS(C)(=O)=O)CC(c2ccc(Cl)c(OC)c2F)N1 (stereo not drawn) [Compound 29, 3-Chloro-6-(4-chloro-2-fluoro-3-methoxyphenyl)-4-[(E)-methanesulfonyloximino]-1,4,5,6-tetrahydropyridine-2-carboxylic acid methyl ester]
- Phytotoxicity rating SETFA ([1]; 4000 g ai/ha): 90
- Phytotoxicity rating IPOHE ([2]; 4000 g ai/ha): 95
- Phytotoxicity rating AMARE ([14]; 4000 g ai/ha): 100
- Phytotoxicity rating HELAN ([3]; 4000 g ai/ha): 90
- Phytotoxicity rating AVEFA (wild oat (Avena fatua) [4]; 4000 g ai/ha): 30
- Herbicidal effect rating SETFA ([5]; 4000 g ai/ha): 60
- Herbicidal effect rating IPOHE ([6]; 4000 g ai/ha): 95
- Herbicidal effect rating AMARE ([7]; 4000 g ai/ha): 100
- Herbicidal effect rating HELAN ([8]; 4000 g ai/ha): 80
- Herbicidal effect rating AVEFA (wild oat (Avena fatua) [9]; 4000 g ai/ha): 30
- Visual injury score ECHCG ([10]; 140 g ai/ha): 100%
- Visual injury score POLCO ([11]; 140 g ai/ha): 90%
- Visual injury score CHEAL ([12]; 140 g ai/ha): 100%
- Visual injury score ORYSA (rice (Oryza sativa); 140 g ai/ha): 0%
- Visual injury score ABUTH ([13]; 140 g ai/ha): 100%

SMILES: COC(=O)C1=C(Cl)/C(=N/OS(=O)(=O)c2ccc(C)cc2)CC(c2ccc(Cl)c(OC)c2F)N1 (stereo not drawn) [Compound 31, 3-Chloro-6-(4-chloro-2-fluoro-3-methoxyphenyl)-4-[(E)-p-toluenesulfonyloximino]-1,4,5,6-tetrahydropyridine-2-carboxylic acid methyl ester]
- Phytotoxicity rating SETFA ([1]; 4000 g ai/ha): 80
- Phytotoxicity rating IPOHE ([2]; 4000 g ai/ha): 90
- Phytotoxicity rating HELAN ([3]; 4000 g ai/ha): 90
- Phytotoxicity rating AVEFA (wild oat (Avena fatua) [4]; 4000 g ai/ha): 40
- Herbicidal effect rating SETFA ([5]; 4000 g ai/ha): 10
- Herbicidal effect rating IPOHE ([6]; 4000 g ai/ha): 100
- Herbicidal effect rating AMARE ([7]; 4000 g ai/ha): 100
- Herbicidal effect rating HELAN ([8]; 4000 g ai/ha): 100
- Herbicidal effect rating AVEFA (wild oat (Avena fatua) [9]; 4000 g ai/ha): 10

SMILES: COC(=O)C1=C(Cl)/C(=N/OS(C)(=O)=O)CC(c2ccc(Cl)cc2)N1 (stereo not drawn) [Compound 27, 3-Chloro-6-(4-chlorophenyl)-4-[(E)-methanesulfonyloximino]-1,4,5,6-tetrahydropyridine-2-carboxylic acid methyl ester]
- Phytotoxicity rating SETFA ([1]; 3960 g ai/ha): 90
- Phytotoxicity rating IPOHE ([2]; 3960 g ai/ha): 85
- Phytotoxicity rating AMARE ([14]; 3960 g ai/ha): 100
- Phytotoxicity rating HELAN ([3]; 3960 g ai/ha): 95
- Phytotoxicity rating AVEFA (wild oat (Avena fatua) [4]; 3960 g ai/ha): 75
- Herbicidal effect rating SETFA ([5]; 3960 g ai/ha): 100
- Herbicidal effect rating IPOHE ([6]; 3960 g ai/ha): 100
- Herbicidal effect rating AMARE ([7]; 3960 g ai/ha): 100
- Herbicidal effect rating HELAN ([8]; 3960 g ai/ha): 100
- Herbicidal effect rating AVEFA (wild oat (Avena fatua) [9]; 3960 g ai/ha): 20
